Experimental findings from patent US20250034182A1, “PHOSPHOLIPID COMPOUNDS AND METHODS OF MAKING AND USING THE SAME” (priority 2021, published 2025) are described below.

Holding throughout (format): cell-based
The subject of series [1] is Respiratory syncytial virus recombinant with luciferase (RSV-Luc5) in NHBE cells. Kind of series: NHBE RSV-Luc5 384-well assay (EC50 RSVFLUC NHBE-384, Example U). The following applies: human respiratory syncytial virus, 72 h, read-out: RSV FLuc NHBE 384 EC50 (v2) (nM) (per Ex. U). How it is done:
Normal Human Bronchial Epithelial (NHBE) cells were purchased from Lonza (Walkersville, MD Cat #CC2540) and maintained in BEGM Bronchial Epithelial Cell (Growth Medium BulletKit (Lonza CC-3170).
Cells were thawed, expanded, and were used for experiments at passage 2. Respiratory syncytial virus recombinant with luciferase (RSV-Luc5) (≥1×10^7 Infectious Units/ml (IU/ml) determined by TCID50) was purchased from Microbiologics (Saint Cloud, MN). Viral replication was determined in NHBE cells in the following manner.
(§1) Compounds are prepared in 100% DMSO in 384-well polypropylene plates (Greiner, Monroe, NC, Cat #784201) with 8 compounds per plate in grouped replicates of 4 at 10 serially diluted concentrations (1:3). The serially diluted compounds were transferred to low dead volume Echo plates (Labcyte, Sunnyvale, CA, Cat #LP-0200).
The test compounds were spotted to 384-well assay plates (Greiner, Monroe, NC, Cat #781091) at 200 nL per well. NHBE cells were harvested and suspended in BEGM Bronchial Epithelial Cell Growth Medium BulletKit and seeded to the pre-spotted assay plates at 5,000 cells per well in 30 μL. RSV-Luc5 virus was diluted in BEGM Bronchial Epithelial Cell Growth Medium BulletKit at 500,000 Infectious Units (IU) per mL and 10 μL per well was added to the assay plates containing cells and compounds, for an MOI of 1. The assay plates were incubated for 3 days at 37° C. and 5% CO2. At the end of incubation, One-Glo reagent (Promega, Madison, WI, Cat #E6120) was prepared. The assay plates and One-Glo reagent were equilibrated to room temperature for at least 15 minutes. 40 μL per well of One-Glo reagent was added and the plates were incubated at room temperature for 15 minutes before reading the luminescence signal on an EnVision multimode plate reader (Perkin Elmer, Waltham, MA). Remdesivir was used as positive control and DMSO was used as negative control. Values were normalized to the positive and negative controls (as 0% and 100% replication, respectively) and data was fitted using non-linear regression analysis by Gilead's dose response tool. The EC50 value for each compound was defined as the concentration reducing the viral replication by 50%.

Series [2] deals with Recombinant Respiratory Syncytial virus strain A2 containing the firefly luciferase reporter (RSV-Fluc) in NHBE cells. Kind of series: RSV NHBE FLuc EC50 (Example I). The following applies: human respiratory syncytial virus, 72 h, read-out: RSV NHBE FLuc EC50 (nM) (per Ex. I). The source says:
Normal human bronchial epithelial (NHBE) cells are purchased from Lonza (Walkersville, MD Cat #CC-2540) and maintained in Bronchial Epithelial Cell Growth Medium (BEGM) (Lonza, Walkersville, MD, Cat #CC-3170) with all provided supplements in the BulletKit. Cells are passaged 2-3 times per week to maintain sub-confluent densities and are used for experiments at passages 2-4.
Recombinant Respiratory Syncytial virus strain A2 containing the firefly luciferase reporter between the P and M genes (RSV-Fluc, 6.3×10^6 TCID50/mL) is purchased from Viratree (Durham, NC, Cat #R^145).
NHBE cells (5×10^3/well) are seeded in 100 μL white wall/clear bottom 96-well plates (Corning) with culture medium and are incubated for 24 hours at 37° C. with 5% CO2. On the following day, three-fold serial dilutions of compounds prepared in DMSO are added to the wells using the HP D300e digital dispenser with normalization to the highest concentration of DMSO in all wells. The cells are then infected with RSV-Fluc diluted with BEGM media at an MOI of 0.1 for a final volume of 200 μL media/well. Uninfected and untreated wells are included as controls to determine compound efficacy against RSV-Fluc. Following incubation with compound and virus for three days at 37° C. with 5% CO2, 100 μL of culture supernatant is removed from each well and replaced with 100 μL of ONE-Glo luciferase reagent (Promega, Madison, WI, Cat #E6110). The plates are gently mixed by rocking for 10 minutes at 21° C. and luminescence signal is measured using an Envision plate reader (PerkinElmer). Values are normalized to the uninfected and infected DMSO controls (0% and 100% infection, respectively). Non-linear regression analysis is applied to determine the compound concentration at which 50% luminescence signal is reduced (EC50) using the XLfit4 add-in for MICROSOFT®EXCEL®. All experiments are performed in duplicate with two technical repeats each.

A short description of series [3]: RSV NHBE CC50 384 V2 (per Ex. U). Conditions: human.
For series [4], the system named is Human Rhinovirus 16 (HRV16) in H1-HeLa cells. As to the kind of experiment: H1-HeLa HRV-CTG EC50, HRV16 (Example Z). Conditions: Rhinovirus A, HRV16, 96 h, MOI 0.25, 4 days, Celltiter-Glo, read-out: HRV 16 HELA EC50 (nM) (per Ex. Z). The source says:
(§2) H1-Hela cell line (ATCC, Manassas, VA, Cat #CRL-1958) was maintained in Dulbecco's […] (DMEM) (Corning, New York, NY, Cat #15-018CM) supplemented with 10% fetal bovine serum (FBS) (Hyclone, Logan, UT, Cat #SH30071-03), and 1× Penicillin-Streptomycin-L-Glutamine (Coming, New York, NY, Cat #30-009-C1). Cells were passaged 2 times per week to maintain sub-confluent densities and were used for experiments at passage 5-30. The Human Rhinovirus 1B (HRV1B) (ATCC, Manassas, VA, Cat #VR-1645), Human Rhinovirus 14 (HRV14) (ATCC, Manassas, VA, Cat #VR-284), and Human Rhinovirus 16 (HRV16) (ATCC, Manassas, VA, Cat #BR-283) was obtained through ATCC. Viral infection was monitored by determining viability of H1-HeLa cells as described below.
(§3) Test molecules are prepared in 100% DMSO in 384-well polypropylene plates (Greiner, Monroe, NC, Cat #784201) with 8 compounds per plate in grouped replicates of 4 at 10 serially diluted concentrations (1:3). The serially diluted compounds were transferred to low dead volume Echo plates (Labcyte, Sunnyvale, CA, Cat #LP-0200).
(§4) The test compounds were spotted to 384-well assay plates (Greiner, Monroe, NC, Cat #781091) at 200 nL per well using an Echo acoustic dispenser (Labcyte, Sunnyvale, CA). H1-HeLa cells were harvested and suspended in DMEM (supplemented with 2% FBS and 1× Penicillin-Streptomycin-L-Glutamine) and seeded to the pre-spotted assay plates at 5,000 cells per well in 30 μL. HRV1B, HRV14, and HRV16 was diluted in DMEM (supplemented with 2% FBS and 1× Penicillin-Streptomycin-L-Glutamine) at 97.1 million Infectious Units (IU) per mL, 151 million IU per mL and 221 million IU per mL respectively. 10 μL of virus per well was added to the assay plates containing cells and compounds, for an MOI of 0.5, 1.0, and 0.25 respectively. The assay plates were incubated for 4 days at 37° C. and 5% CO2. At the end of incubation, Celltiter-Glo (Promega, Madison, WI, Cat #G7573) was prepared. The assay plates and Celltiter-Glo reagent were equilibrated to room temperature for at least 15 minutes. 40 μL per well of Celltiter-Glo reagent was added and the plates were incubated at room temperature for 15 minutes before reading the luminescence signal on an EnVision multimode plate reader (Perkin Elmer, Waltham, MA). Rupintrivir was used as positive control and DMSO was used as negative control. Values were normalized to the positive and negative controls (as 0% and 100% replication, respectively) and data was fitted using non-linear regression analysis by Gilead's dose response tool. The EC50 value for each compound was defined as the concentration reducing viral replication by 50%.
(In general: In ATP-based viability assays light output follows the ATP content of the culture.)

Series [5] has as its system Respiratory syncytial virus recombinant with luciferase (RSV-Luc5) in HEp-2 cells. Kind of series: HEp-2 RSV-Luc5 384-well assay (EC50 RSVFLUC Hep2-384 v2, Example V). Conditions: human respiratory syncytial virus, HEp-2, 72 h, read-out: RSV Hep-2 FLuc EC50 (v2) (nM) (per Ex. V).
Description: HEp-2 cell line was purchased from ATCC (Manassas, VA Cat #CCL-23) and maintained in Dulbecco's […] (DMEM) (Corning, New York, NY, Cat #15-018CM) supplemented with 10% fetal bovine serum (FBS) (Hyclone, Logan, UT, Cat #SH30071-03) and 1× Penicillin-Streptonycin-L-Glutamine (Corning, New York, NY, Cat #30-009-CI). Cells were passaged 2 times per week to maintain sub-confluent densities and were used for experiments at passage 5-20. Respiratory syncytial virus recombinant with luciferase (RSV-Luc5) (≥1×107 TCID50/ml) was purchased from Microbiologics (Saint Cloud, MN). Viral replication was determined in HEp-2 cells in the following manner.
as §1
The test compounds were spotted to 384-well assay plates (Greiner, Monroe, NC, Cat #781091) at 200 nL per well. HEp-2 cells were harvested and suspended in DMEM (supplemented with 10% FBS and 1× Penicillin-Streptomycin-L-Glutamine) and seeded to the pre-spotted assay plates at 4,000 cells per well in 30 μL. RSV-Luc5 viruses were diluted in DMEM (supplemented with 10% FBS and 1× Penicillin-Streptomycin-L-Glucamine) at 200,000 Infectious Units (IU) per mL and 10 μL per well was added to the assay plates containing cells and compounds, for an MOI=0.5. The assay plates were incubated for 3 days at 37° C. and 5% CO2. At the end of incubation, One-Glo reagent (Promega, Madison, WI, Cat #E6120) was prepared. The assay plates and One-Glo reagent were equilibrated to room temperature for at least 15 minutes. 40 μL per well of One-Glo reagent was added and the plates were incubated at room temp for 15 minutes before reading the luminescence signal on an EnVision multimode plate reader (Perkin Elmer, Waltham, MA). Remdesivir was used as positive control and DMSO was used as negative control. Values were normalized to the positive and negative controls (as 0% and 100% replication, respectively) and data was fitted using non-linear regression analysis by Gilead's dose response tool. The EC50 value for each compound was then determined as the concentration reducing the viral replication by 50%.

Series [6] concerns Human Rhinovirus 14 (HRV14) in H1-HeLa cells. As to the kind of experiment: H1-HeLa HRV-CTG EC50, HRV14 (Example Z). The following applies: Rhinovirus B, HRV14, 96 h, MOI 1.0, 4 days, Celltiter-Glo, read-out: HRV14 HELA EC50 (nM) (per Ex. Z).
Description: as §2, §3, §4

The nature of series [7]: RSV HEP2-CC50-384-V2 (per Ex. V). Conditions: human.
Series [8] deals with Human Rhinovirus 1B (HRV1B) in H1-HeLa cells. Kind of series: H1-HeLa HRV-CTG EC50, HRV1B (Example Z). Conditions: Rhinovirus A, 96 h, MOI 0.5, 4 days, Celltiter-Glo, read-out: HRV 1B HELA EC50 (nM) (per Ex. Z).
Description: as §2, §3, §4

What is called EC50 is the concentration giving half of the maximal effect. Broadly, the CC50 is the concentration giving 50% cytotoxicity. Read a low CC50 as greater toxicity to the cells. Turning to `CCCCCCCCCCCCCCCCCCC[C@@H](COP(=O)(O)OC[C@@]1(C#N)O[C@@H](c2ccc3c(N)ncnn23)[C@H](O)[C@@H]1O)OCc1cc(F)cc(C#N)c1` [Compound 31, ((2R,3S,4R)-5-(4-aminopyrrolo[2,1-f][1,2,4]triazin-7-yl)-2-cyano-3,4-dihydroxytetrahydrofuran-2-yl)methyl ((S)-2-((3-cyano-5-fluorobenzyl)oxy)henicosyl) hydrogen phosphate], the figures for the EC50 in series [1] and in series [2] were 134 nM and 229 nM, respectively. Besides, in series [3], the CC50 at 3 days came out at 1900 nM.

Turning to `CCCCCCCCCCCCCCCOC[C@H](COP(=O)(O)OC[C@@]1(C#N)O[C@@H](c2ccc3c(N)ncnn23)[C@H](O)[C@@H]1O)OCc1cc(F)cc(C#N)c1` [Compound 99, ((2R,3S,4R,5S)-5-(4-aminopyrrolo[2,1-f][1,2,4]triazin-7-yl)-2-cyano-3,4-dihydroxytetrahydrofuran-2-yl)methyl ((R)-2-((3-cyano-5-fluorobenzyl)oxy)-3-(pentadecyloxy)propyl) hydrogen phosphate], the EC50 came to 33 nM in series [4]; 166 nM in series [5]; 47 nM in series [1]; 37 nM in series [6]; 19 nM in series [8]. Further, the half-maximal cytotoxic concentration (CC50) at 3 days is 42300 nM in series [7] and 1140 nM in series [3].
